Values quoted from earlier work as cited in patent publication US6534540B2, “Combination and method of treatment of cancer utilizing a COX-2 inhibitor and a 3-hydroxy-3-methylglutaryl-coenzyme-a (HMG-CoA) reductase inhibitor” (priority 2000, dated 2003).

Tests used:
prostate cancer specimen = conditions: mice, prostate cancer specimen in vivo
COX-2 = biological target: T1, COX-2 (Mus musculus, UniProt Q05769); conditions: in vivo
T1 sequence (Q05769 18-604): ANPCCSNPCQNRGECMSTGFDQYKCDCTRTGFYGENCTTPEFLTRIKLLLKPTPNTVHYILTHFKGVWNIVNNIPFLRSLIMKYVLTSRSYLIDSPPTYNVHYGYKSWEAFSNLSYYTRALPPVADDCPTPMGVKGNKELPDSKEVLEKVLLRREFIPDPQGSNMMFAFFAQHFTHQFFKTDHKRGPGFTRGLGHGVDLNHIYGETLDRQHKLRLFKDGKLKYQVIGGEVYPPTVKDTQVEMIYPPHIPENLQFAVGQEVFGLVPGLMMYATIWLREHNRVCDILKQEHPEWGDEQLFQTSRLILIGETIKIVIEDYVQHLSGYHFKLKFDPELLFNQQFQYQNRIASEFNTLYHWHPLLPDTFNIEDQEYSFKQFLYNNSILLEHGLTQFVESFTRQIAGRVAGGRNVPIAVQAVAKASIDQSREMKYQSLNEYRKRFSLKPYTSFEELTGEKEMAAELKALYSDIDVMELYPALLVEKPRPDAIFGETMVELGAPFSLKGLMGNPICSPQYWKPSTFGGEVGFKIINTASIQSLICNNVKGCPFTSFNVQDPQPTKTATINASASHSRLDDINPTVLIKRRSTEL

[1] = tested on: Prostate Cancer Cell Line LNCaP

CS(=O)(=O)Nc1ccc([N+](=O)[O-])cc1OC1CCCCC1 [NS398]
angiogenesis (prostate cancer specimen): inhibit angiogenesis

COc1cc(C2Oc3cc([C@H]4Oc5cc(O)cc(O)c5C(=O)[C@@H]4O)ccc3OC2CO)ccc1O (stereo partly drawn) [silybinin]
COX-2 inhibition relative to COX-1 inhibition (COX-2): significant COX-2 inhibition relative to COX-1 inhibition

CC[C@H](C)C(=O)O[C@H]1C[C@@H](C)C=C2C=C[C@H](C)[C@H](CC[C@@H]3C[C@@H](O)CC(=O)O3)[C@H]21 [lovastatin]
therapeutic value in prostate cancer [1]: had therapeutic value in treating prostate cancer
